# Measured values published in patent US9616009B2, “Composition containing at least one C7 sugar for alopecia treatment, cosmetic treatment of hair and nails, and care of hair, eyelashes or nails” (LABORATOIRES EXPANSCIENCE, priority 2009, dated 2017).
# Columns and labels:
# IL-1β = IL-1β release (ELISA) by keratinocytes stressed with PMA; type: cell-based, human
# Experimental: (§1) We evaluated the capacity to modulate the inflammatory response of the avocado sugars obtained according to Example 1, hereafter called AV119, in human primary keratinocytes stressed with PMA (phorbol myristic acetate).
# (§2) At day 0 (D0), normal human epidermal keratinocytes (NHEK) are seeded in hydrocortisone-free KGM2 medium.
# (§3) At subconfluence (at D1), the NHEK are rinsed with PBS and then pretreated with 0.005% and 0.05% avocado sugars AV119 or 0.1 μM dexamethasone (positive control) (Sigma, product D4902) in hydrocortisone-free KGM2 medium.
# (§4) Twenty-four hours later, the NHEK are treated overnight with 10 μg/ml PMA (phorbol myristate acetate).
# (§5) After incubation, the culture supernatants are collected and stored at −80° C. awaiting the cytokine (IL-1β, TNF-α, IL-8) ELISA (R&D Systems kits).
# (§6) In parallel, the number of living cells is determined by a neutral red test.
# (§7) The quantity of cytokine assayed for each condition (concentration in pg/ml, or OD450) is reduced to the number of living cells by dividing by the OD540 value obtained at the end of the neutral red test.
# (§8) The results are compared statistically using a one way ANOVA followed by a Tukey's test.
# TNF-α [1] = assay: TNF-α release (ELISA) by keratinocytes stressed with PMA; type: cell-based, human
# Experimental: as §1, §2, §3, §4, §5, §6, §7, §8
# IL-8 [2] = assay: IL-8 release (ELISA) by keratinocytes stressed with PMA; type: cell-based, human
# Experimental: as §1, §2, §3, §4, §5, §6, §7, §8
# [3] = test system: tumor cells of Ehrlich's ascites carcinoma; conditions: perseitol associated with a potassium ion; Shibuya et al., Pure Appl. Chem. 1999; cited from earlier work
# IL-6 [4] = assay: IL-6 gene expression (mRNA, real-time PCR) in keratinocytes stressed with LPS; type: cell-based, human; conditions: keratinocytes stressed with 10 μg/ml LPS 24 h: LPS alone, or pretreated with 0.1% AV119 24 h, or with 30 μM calpain
# Experimental: (§9) We evaluated the capacity to modulate the inflammatory response of the avocado sugars obtained according to Example 1, hereafter called AV119, in human primary keratinocytes stressed with LPS (lipopolysaccharide).
# (§10) The cells were pretreated with 0.1% AV119 for 24 h and successively with 10 μg/ml of LPS for 24 h. In another series of experiments, the keratinocytes were pretreated with 30 μM calpain and successively with 10 μg/ml LPS for 24 h. Calpain is a specific inhibitor of the transcription factor NFκB, a key element of the inflammatory cascade. A control of keratinocytes treated only with AV119 was prepared.
# (§11) Expression of mRNA for the cytokines IL-6, IL-8, IL-1α and TNF-α was analyzed by real-time PCR and protein production and release were analyzed by ELISA in the culture supernatants. Moreover, ICAM-1 expression and production were also analyzed. Finally, IκB phosphorylation was analyzed to measure the activation of transcription factor NFκB.
# (§12) Total RNA was extracted with the High Pure RNA Isolation Kit (Roche Diagnostics) according to the manufacturer's recommendations. […] The melting curve was analyzed at the end of each amplification to ensure the absence of non-specific reaction products. […]
# IL-8 [5] = assay: IL-8 gene expression (mRNA, real-time PCR) in keratinocytes stressed with LPS; type: cell-based, human; conditions: keratinocytes stressed with 10 μg/ml LPS 24 h: LPS alone, or pretreated with 0.1% AV119 24 h, or with 30 μM calpain
# Experimental: as §9, §10, §11, §12
# IL-1α [6] = assay: IL-1α gene expression (mRNA, real-time PCR) in keratinocytes stressed with LPS; type: cell-based, human; conditions: keratinocytes stressed with 10 μg/ml LPS 24 h: LPS alone, or pretreated with 0.1% AV119 24 h, or with 30 μM calpain
# Experimental: as §9, §10, §11, §12
# TNF-α [7] = assay: TNF-α gene expression (mRNA, real-time PCR) in keratinocytes stressed with LPS; type: cell-based, human; conditions: keratinocytes stressed with 10 μg/ml LPS 24 h: LPS alone, or pretreated with 0.1% AV119 24 h, or with 30 μM calpain
# Experimental: as §9, §10, §11, §12
# IL-6 [8] = assay: IL-6 protein production (ELISA) in keratinocytes stressed with LPS; type: cell-based, human; conditions: keratinocytes stressed with 10 μg/ml LPS 24 h: LPS alone, or pretreated with 0.1% AV119 24 h, or with 30 μM calpain; culture supernatant
# Experimental: as §9, §10, §11
# (§13) A standard protocol was used for the ELISA tests (Phoenix Pharmaceuticals, Inc.).
# IL-8 [9] = assay: IL-8 protein production (ELISA) in keratinocytes stressed with LPS; type: cell-based, human; conditions: keratinocytes stressed with 10 μg/ml LPS 24 h: LPS alone, or pretreated with 0.1% AV119 24 h, or with 30 μM calpain; culture supernatant
# Experimental: as §9, §10, §11, §13
# IL-1α [10] = assay: IL-1α protein production (ELISA) in keratinocytes stressed with LPS; type: cell-based, human; conditions: keratinocytes stressed with 10 μg/ml LPS 24 h: LPS alone, or pretreated with 0.1% AV119 24 h, or with 30 μM calpain; culture supernatant
# Experimental: as §9, §10, §11, §13
# TNF-α [11] = assay: TNF-α protein production (ELISA) in keratinocytes stressed with LPS; type: cell-based, human; conditions: keratinocytes stressed with 10 μg/ml LPS 24 h: LPS alone, or pretreated with 0.1% AV119 24 h, or with 30 μM calpain; culture supernatant
# Experimental: as §9, §10, §11, §13
# ICAM-1 [12] = assay: ICAM-1 gene expression (mRNA, real-time PCR) in keratinocytes stressed with LPS; type: cell-based, human; conditions: keratinocytes stressed with 10 μg/ml LPS 24 h: LPS alone, or with 30 μM calpain
# Experimental: as §9
# (§14) […] In another series of experiments, the keratinocytes were pretreated with 30 μM calpain and successively with 10 μg/ml LPS for 24 h. Calpain is a specific inhibitor of the transcription factor NFκB, a key element of the inflammatory cascade. A control of keratinocytes treated only with AV119 was prepared.
# as §11
# Total RNA was extracted with the High Pure RNA Isolation Kit (Roche Diagnostics) according to the manufacturer's recommendations. […] The melting curve was analyzed at the end of each amplification to ensure the absence of non-specific reaction products. Quantification rests on the measure of threshold cycles (CT), which are measured at the beginning of the exponential phase of the reaction and on the normalization of the internal standard curve obtained with the reference gene beta-actin.
# ICAM-1 [13] = assay: ICAM-1 protein production (ELISA) in keratinocytes stressed with LPS; type: cell-based, human; conditions: keratinocytes stressed with 10 μg/ml LPS 24 h: LPS alone, or with 1% AV119, or with 30 μM calpain
# Experimental: as §9, §14, §11, §13
# [14] = test system: IκB phosphorylation / transcription factor NFκB; assay: IκB phosphorylation (Western blot) as measure of NFκB activation in keratinocytes stressed with LPS; type: cell-based, human; conditions: keratinocytes stressed with 10 μg/ml LPS; pretreated with 0.1% AV119 or 30 μM calpain
# Experimental: as §9, §10, §11
# Proteins were extracted from the keratinocytes by cold homogenization in lysis buffer (50 mM HEPES pH 7.5, 150 mM NaCl, 1% glycerol, 1% Triton, 1.5 mM MgCl2, 5 mM EGTA) supplemented with 20 mM sodium pyrophosphate, 10 mM sodium orthovanadate and 25 mM NaF and protease inhibitors (aprotinin, phenylmethanesulfonyl fluoride (PMSF)). Protein level was quantified by the Bradford method. […]
# [15] = NHEK, 10 μg/ml PMA overnight, PMA alone
# [16] = PMA 10 μg/ml alone, increase in relation to the untreated control (without PMA)
# [17] = 0.1 μM dexamethasone, in relation to PMA
# [18] = NHEK pretreated 24 h with 0.1 μM dexamethasone, then 10 μg/ml PMA overnight
compound,measurement,setting,value
"CCCCCCCCCCCCCC(=O)O[C@@H]1[C@@H](C)[C@@]2(O)[C@@H](C=C(CO)C[C@]3(O)C(=O)C(C)=C[C@@H]23)[C@@H]2C(C)(C)[C@]12OC(C)=O [PMA, phorbol myristate acetate]",IL-1β pg/ml/OD450 (mean ± SD),IL-1β; [15],10.930 ± 0.190 pg/ml/OD450
same,"IL-1β release, % in relation to the control",IL-1β; [16],1399%
same,TNF-α pg/ml/OD450 (mean ± SD),TNF-α [1]; [15],0.584 ± 0.079 pg/ml/OD450
same,"TNF-α release, % in relation to the control",TNF-α [1]; [16],1091%
same,IL-8 pg/ml/OD450 (mean ± SD),IL-8 [2]; [15],1.765 ± 0.305 pg/ml/OD450
same,"IL-8 release, % in relation to the control",IL-8 [2]; [16],1017%
"OCC(O)C(O)C(O)C(O)C(O)CO (stereo not drawn) [perseitol, Perseitol]",incorporation of 3H-leucine in tumor cells,[3],inhibits the incorporation of 3H-leucine
lipopolysaccharide [LPS],"IL-6 gene expression (mRNA, real-time PCR)",IL-6 [4],54.5
same,"IL-8 gene expression (mRNA, real-time PCR)",IL-8 [5],54.1
same,"IL-1α gene expression (mRNA, real-time PCR)",IL-1α [6],71.5
same,"TNF-α gene expression (mRNA, real-time PCR)",TNF-α [7],68.0
same,IL-6 protein production (ELISA),IL-6 [8],76
same,IL-8 protein production (ELISA),IL-8 [9],85
same,IL-1α protein production (ELISA),IL-1α [10],82
same,TNF-α protein production (ELISA),TNF-α [11],96.0
same,"ICAM-1 gene expression (mRNA, real-time PCR)",ICAM-1 [12],53.2
same,ICAM-1 protein production (ELISA),ICAM-1 [13],85
same,"IκB phosphorylation (activation of transcription factor NFκB), Western blot",[14],strongly induced IκB phosphorylation
"C[C@@H]1C[C@H]2[C@@H]3CCC4=CC(=O)C=C[C@]4(C)[C@@]3(F)[C@@H](O)C[C@]2(C)[C@@]1(O)C(=O)CO [Dexamethasone, dexamethasone]","IL-1β release, % in relation to the control",IL-1β; [17],−70%
same,IL-1β pg/ml/OD450 (mean ± SD),IL-1β; [18],3.232 ± 0.329 pg/ml/OD450
same,"TNF-α release, % in relation to the control",TNF-α [1]; [17],−44%
same,TNF-α pg/ml/OD450 (mean ± SD),TNF-α [1]; [18],0.328 ± 0.007 pg/ml/OD450
same,"IL-8 release, % in relation to the control",IL-8 [2]; [17],−55%
same,IL-8 pg/ml/OD450 (mean ± SD),IL-8 [2]; [18],0.790 ± 0.089 pg/ml/OD450
